Legend:
[1] = test system: MV4;11, MOLM-13 and RS4;11 acute leukemia cell lines; test: Cell growth inhibition, statements covering the three leukemia cell lines; assay type: cell-based, human
[2] = test system: BRD2, BRD3 and BRD4 proteins in RS4;11 cells; conditions: for lowest concentration very effective in inducing degradation of BET proteins: 3 h treatment
[3] = test system: cleaved PARP and cleaved Caspase 3 in RS4;11 cells; test: Western blotting of cleaved PARP / caspase 3 in RS4; assay type: cell-based, human; conditions: RS4;11 cells, 1 and 10 nM, 24 h treatment
[4] = test system: c-Myc protein in RS4;11 cells; test: Western blotting of c-Myc in RS4; assay type: cell-based, human; conditions: RS4;11 cells, 3 h treatment
BRD4 BD1 protein = BRD4 BD1 protein (Homo sapiens, UniProt O60885); conditions: for times less potent than 3 in binding to BRD4 BD1: vs compound 3

In the case of “4-(4-((3-Benzyl-9-methyl-4H,6H-thieno[2,3-e][1,2,4]triazolo[3,4-c][1,4]oxazepin-2-yl)ethynyl)-1H-pyrazol-1-yl)-2-(2,6-dioxopiperidin-3-yl)isoindoline-1,3-dione [Compound 26]”, the “cell growth inhibitory activity” value ([1]; concentrations up to 1,000 nM, any of the three leukemia cell lines) was “failed to show significant cell growth inhibitory activity” and the “degradation of BRD2, BRD3 and BRD4 proteins” value ([2]; up to 1,000 nM, 24 h treatment) was “failed to induce degradation”.

“4-(5-(4-((3-Benzyl-9-methyl-4H,6H-thieno[2,3-e][1,2,4]triazolo[3,4-c][1,4]oxazepin-2-yl)ethynyl)-1H-pyrazol-1-yl)pent-1-yn-1-yl)-2-(2,6-dioxopiperidin-3-yl)isoindoline-1,3-dione [Compound 36]” was tested, and the “times less potent than 35 in cell growth inhibition” value ([1]; three leukemia cell lines) was 10–100 times.

For “4-((2-(4-((3-Benzyl-9-methyl-4H,6H-thieno[2,3-e][1,2,4]triazolo[3,4-c][1,4]oxazepin-2-yl)ethynyl)-1H-pyrazol-1-yl)ethyl)amino)-2-(2,6-dioxopiperidin-3-yl)isoindoline-1,3-dione [Compound 28]”, the “apoptosis induction revealed by cleavage of PARP” value (“apoptosis induction revealed” for short) [3] was “potently induce apoptosis”.

With “4-((3-(4-((3-Benzyl-9-methyl-4H,6H-thieno[2,3-e][1,2,4]triazolo[3,4-c][1,4]oxazepin-2yl)ethynyl)-1H-pyrazol-1-yl)propyl)amino)-2-(2,6-dioxopiperidin-3-yl)isoindoline-1,3-dione [Compound 29]” the “times more potent than 28 in cell growth inhibition” value ([1]; three cell lines) was 3–10 times, the “apoptosis induction revealed” value [3] was “potently induce apoptosis” and the “lowest concentration very effective in inducing degradation of BET proteins” value [2] was ≤ 0.1 nM.

For “4-((4-(4-((3-Benzyl-9-methyl-4H,6H-thieno[2,3-e][1,2,4]triazolo[3,4-c][1,4]oxazepin-2yl)ethynyl)-1H-pyrazol-1-yl)butyl)amino)-2-(2,6-dioxopiperidin-3-yl)isoindoline-1,3-dione [Compound 30]”, the “times more potent than 29 in cell growth inhibition” value ([1]; each of the three leukemia cell lines) was 2–3 times, the “lowest concentration reducing the levels of c-Myc protein” value [4] was ≤ 0.1 nM and the “apoptosis induction revealed” value [3] was “potently induce apoptosis”. For the same compound, the “lowest concentration very effective in inducing degradation of BET proteins” value [2] was ≤ 0.1 nM.

“4-((4-((3-Benzyl-9-methyl-4H,6H-thieno[2,3-e][1,2,4]triazolo[3,4-c][1,4]oxazepin-2-yl)ethynyl)-1H-pyrazol-1-yl)methoxy)-2-(2,6-dioxopiperidin-3-yl)isoindoline-1,3-dione [Compound 27]” was tested, and the “degradation of BRD2 and BRD3 relative to BRD4” value [2] was “more effectively than the BRD4 protein”, the “relative potency in inducing degradation of BET proteins” value [2] was “much less potent than compounds 29, 30 and 31” and the “lowest concentration very effective in inducing degradation of BRD2, BRD3 and BRD4” value ([2]; time- and dose-dependent) was ≤ 10 nM.

In the case of “4-((5-(4-((3-Benzyl-9-methyl-4H,6H-thieno[2,3-e][1,2,4]triazolo[3,4-c][1,4]oxazepin-2-yl)ethynyl)-1H-pyrazol-1-yl)pentyl)amino)-2-(2,6-dioxopiperidin-3-yl)isoindoline-1,3-dione [Compound 31]”, the “lowest concentration reducing the levels of c-Myc protein” value [4] was ≤ 0.1 nM, the “apoptosis induction revealed” value [3] was “potently induce apoptosis” and the “lowest concentration very effective in inducing degradation of BET proteins” value [2] was ≤ 0.1 nM.

In the case of `Cc1nnc2n1-c1scc(Cc3ccccc3)c1COC2` [Compound 4, 3-Benzyl-9-methyl-4H,6H-thieno[2,3-e][1,2,4]triazolo[3,4-c][1,4]oxazepine], the “times less potent than 3 in binding to BRD4 BD1” value (BRD4 BD1 protein) was 25 times.

In the case of `Cc1nnc2n1-c1sc(C3CCOCC3)c(Cc3ccccc3)c1COC2` [Compound 6, 3-Benzyl-9-methyl-2-(tetrahydro-2H-pyran-4-yl)-4H,6H-thieno[2,3-e][1,2,4]triazolo[3,4c][1,4]oxazepine], the “times less potent than 3 in binding to BRD4 BD1” value (BRD4 BD1 protein) was > 50 times.

In the case of `Cc1nnc2n1-c1sc(C#N)c(Cc3ccccc3)c1COC2` [Compound 9, 3-Benzyl-9-methyl-4H,6H-thieno[2,3-e][1,2,4]triazolo[3,4-c][1,4]oxazepine-2-carbonitrile], the “times less potent than 3 in binding to BRD4 BD1” value (BRD4 BD1 protein) was 6 times and the “times less potent than 8 in binding to BRD4 BD1” value (BRD4 BD1 protein; vs compound 8) was 3 times.

Source: article PMC6545111 (Journal of medicinal chemistry, 2018)
